In US5070191A, “Demethylallosamidin and a process for production thereof” (Ajinomoto Co., Inc., priority 1989, dated 1991):
Values belong to the compound of their own block, whether it stands above or below them.

What was measured:
[1] = test system: Fusarium nivale ATCC 42308; experiment: Influence on growth of mold (length and branching degree of hyphae); assay type: cell-based; design: Length Hypha: unit not given here; conditions: after 32 hours; for Branching Degree of Hypha (mean value of branch intervals of hyphae) / Length Hypha: 28° C.
Description: Demethylallosamidin was added to the culture medium of mold to examine its influence. Firstly, Fusarium nivale ATCC 42308 was precultured in PDA medium (manufactured by Nissui Pharmaceutical Co., Ltd.) to form spores. The spores were suspended in physiological saline. The suspension was filtered through cotton to give a spore suspension free of hyphae. A fixed amount of the resulting suspension was inoculated on a medium supplemented with demethylallosamidin (0.80 μg/ml, 0.16 μg/ml) and on demethylallosamidin-free medium (control), respectively. […] The observation was performed as follows: sampling was made over definite periods of time, microscopic photographs were taken and the length and branching degree of hyphae were determined. The branching degree of hyphae is a mean value of branch intervals of hyphae. In any case, incubation was carried out at 28° C. at 120 strokes/min by charging 1 ml each of medium (0.03% of yeast extract, 0.03% of malt extract; both manufactured by Daigo Nutrient Co., Ltd.) and 0.1% of glucose in a testing tube with a cotton stopper (diameter of 11 mm).

[2] = molecular target: T1, fungi-derived chitinase (chitinase solution from baker's yeast) (Saccharomyces cerevisiae, UniProt P29029); experiment: Determination of chitinase inhibitory activity (3H-chitin hydrolysis); assay type: biochemical; conditions: for Inhibition Rate (%): 37° C., 3 hours, pH 3.0
T1 construct: The cells were removed by centrifugation (0° C., 10 mins., 12,000 g); The resulting supernatant was concentrated to 200 ml by ultrafiltration; host or cells: baker's yeast; concentrated, acid-treated supernatant of shaken cells
T1 sequence (P29029 21-562): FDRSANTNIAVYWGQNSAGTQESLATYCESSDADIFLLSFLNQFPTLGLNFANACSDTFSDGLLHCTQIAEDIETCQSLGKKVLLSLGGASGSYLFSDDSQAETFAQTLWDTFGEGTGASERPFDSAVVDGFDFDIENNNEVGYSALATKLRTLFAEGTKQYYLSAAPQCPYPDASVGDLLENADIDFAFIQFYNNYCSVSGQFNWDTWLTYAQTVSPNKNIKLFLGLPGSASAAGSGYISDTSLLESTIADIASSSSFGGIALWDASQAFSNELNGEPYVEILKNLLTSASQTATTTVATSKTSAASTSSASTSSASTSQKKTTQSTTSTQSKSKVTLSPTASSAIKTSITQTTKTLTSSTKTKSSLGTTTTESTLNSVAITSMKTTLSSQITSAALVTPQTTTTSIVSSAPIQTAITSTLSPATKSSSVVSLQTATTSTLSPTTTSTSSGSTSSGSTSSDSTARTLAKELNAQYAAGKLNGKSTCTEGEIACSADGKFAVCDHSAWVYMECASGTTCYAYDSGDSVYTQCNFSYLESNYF
Description: A Sakaguchi flask of 2 liters was charged with 1 liter of 25 mM MES (Nakarai Chemical Co., Ltd.) buffer containing 0.1% β-mercaptoethanoland 200 g of baker's yeast (Kanegafuchi Chemical Industry Co., Ltd.) followed by shaking at 30° C. at 120 spm for 2 hours. The cells were removed by centrifugation (0° C., 10 mins., 12,000 g). The resulting supernatant was concentrated to 200 ml by ultrafiltration (TOYO ULTRAFILTER UP-20). After concentration, 400 ml of citrate buffer (0.15 M citric acid+0.15 M sodium citrate, pH 3.0) was added to the concentrate. After the formed precipitates were removed by centrifugation (0° C., 10 mins., 12,000 g), the resulting supernatant was concentrated to 40 ml by ultrafiltration. The concentrate was stored at 4° C. and used as the chitinase solution in the assay.
10 ml of 10% acetic acid was slowly added to 0.5 g of chitosan (PFANSTIEHL LABORATORIES INC.), then the mixture was kneaded in a mortar to become gel-like. After standing at room temperature overnight, 45 ml of methanol was added while thoroughly stirring. The mixture was filtered through a gauze and 0.75 ml of ^3 H-labeled acetic anhydride (NET 018A10 ACETIC ANHYDRIDE 5 mCi) was added to the filtrate obtained. The formed agar-like chitin was homogenized with a homogenizer, collected on a glass filter (Whatmann GF/B) and suspended in 10 ml of citrate buffer (pH 3.0). This chitin suspension (2.3 μCi/ml chitin suspension) was used as a substrate for assay.
In an Epfendorf tube, 90 μl of the chitinase solution and 10 μl of the ^3 H-chitin suspension were charged and reacted at 37° C. for 3 hours. In this case, 90 μl of citrate buffer (pH 3.0) was used in place of 90 μl of the enzyme solution as a control sample and reacted in a similar manner. After the reaction, 100 μl of 10% trichloroacetic acid was added and the reaction solution was passed through a glass filter (Whatmann GF/B). After 10 ml of scintillant solution was added to the obtained filtrate, its radioactivity (dpm) was determined. The difference between the determined value and the control sample indicated chitinase activity. The scintillant solution was prepared by dissolving 4 g of Ominiflour (Daiichi Chemical) in 500 ml of toluene and adding 500 ml of Triton X-100 (Nakarai Chemical Co., Ltd.) to the solution.
When allosamidin and demethylallosamidin were added, both were dissolved in 0.1 N acetic acid solution and 10 μl each of the solutions having the respective concentrations was added to the reaction system described above. Also, 10 μl of 0.1 N acetic acid was added to the blank and to the system in which no inhibitor was added, followed by the reaction described above.
The inhibitory activity was calculated according to the equation below: [formula] wherein: A=chitinase activity (dpm) when no inhibitor was added.
B=chitinase activity (dmp) when the inhibitor was added.
In any of the measurements, three series of runs were used and a mean value was determined.

[3] = test system: Mouse ascitic mammary cancer cells FM3A; experiment: Cytotoxicity, mouse ascitic mammary cancer cells FM3A; assay type: cell-based; conditions: 1 mg/ml, 37° C., 4 days
Description: (i) Mouse ascitic mammary cancer cells FM3A were inoculated in 1×10^5 /ml on Dulbecco modified MEM medium supplemented with 10% fetal calf serum and demethylallosamidin was added thereto in a concentration of 1 mg/ml followed by stationary culture at 37° C. for 4 days.

[4] = test system: Human leukemia cells K562; experiment: Cytotoxicity, human leukemia cells K562; assay type: cell-based; conditions: 1 mg/ml, 37° C., 4 days
Description: (ii) Human leukemia cells K562 were inoculated in 1×10^5 /ml on FRMI 1640 medium supplemented with 10% fetal calf serum and demethylallosamidin was added thereto in a concentration of 1 mg/ml followed by stationary culture at 37° C. for 4 days.

[5] = test system: endo-type chitinase derived from insects; conditions: background statement; cited from earlier work
[6] = molecular target: T1, fungi-derived chitinase (chitinase solution from baker's yeast); conditions: background statement; cited from earlier work
[7] = addition of demethylallosamidin

- inhibitory activity against fungi-derived chitinase (in words) [2]: potent inhibitory activity
- Inhibition Rate (%) ([2]; amount added 0.05 μg): 61.1%
- Inhibition Rate (%) ([2]; amount added 0.1 μg): 73.9%
- Inhibition Rate (%) ([2]; amount added 0.2 μg): 75.2%
- Inhibition Rate (%) ([2]; amount added 0.4 μg): 84.6%
- Inhibition Rate (%) ([2]; amount added 0.8 μg): 87.1%
- inhibitory activity per unit weight relative to allosamidin ([2]; fungi-derived chitinase, versus allosamidin): ≤ 100 times
SMILES: CNC1=NC2C(O)C(OC3OC(CO)C(OC4OC(CO)C(O)C(O)C4NC(C)=O)C(O)C3NC(C)=O)C(CO)C2O1 (single isomer, unassigned) [Demethylallosamidin, demethylallosamidin]
- Branching Degree of Hypha (mean value of branch intervals of hyphae) ([1]; 0.16 μg/ml): 72.8 μm
- Length Hypha ([1]; 0.16 μg/ml): 364
- Branching Degree of Hypha (mean value of branch intervals of hyphae) ([1]; 0.80 μg/ml): 74.2 μm
- Length Hypha ([1]; 0.80 μg/ml): 576
- branching degree of hyphae (in words) [1, 7]: decreased
- length of hyphae (in words) [1, 7]: obviously increased
- growth inhibition (microscopic observation) [3]: no growth inhibition
- growth inhibition (microscopic observation) ([3]; listed as demethylallosamidin): no growth inhibition was noted at all
- growth inhibition (microscopic observation) [4]: no growth inhibition
- growth inhibition (microscopic observation) ([4]; listed as demethylallosamidin): no growth inhibition was noted at all

SMILES: CC(=O)N[C@H]1[C@H](O[C@H]2[C@@H](O)[C@@H](NC(C)=O)[C@H](O[C@H]3[C@H](O)[C@H]4N=C(N(C)C)O[C@H]4[C@@H]3CO)O[C@@H]2CO)O[C@H](CO)[C@@H](O)[C@H]1O [Allosamidin, allosamidin]
- inhibition of endo-type chitinase derived from insects (in words) [5]: strongly inhibits
- Inhibition Rate (%) ([2]; amount added 1 μg): 36.0%
- Inhibition Rate (%) ([2]; amount added 2 μg): 47.6%
- Inhibition Rate (%) ([2]; amount added 4 μg): 58.5%
- inhibitory activity against chitinase derived from fungi (in words, background) [6]: weakly inhibitory activity
